# Data: ChEMBL document CHEMBL5465560, “Selectivity Literature for EUbOPEN Chemogenomic Library” (2024)
# Columns and labels:
# [1] = biological target: T1, Mitogen-activated protein kinase kinase kinase 12 (Homo sapiens) (UniProt Q12852); assay: Selectivity interaction (KinomeScan (DiscoverX)) EUB0001049a MAP3K12; settings: at 1 µM
# T1 sequence (whole entry): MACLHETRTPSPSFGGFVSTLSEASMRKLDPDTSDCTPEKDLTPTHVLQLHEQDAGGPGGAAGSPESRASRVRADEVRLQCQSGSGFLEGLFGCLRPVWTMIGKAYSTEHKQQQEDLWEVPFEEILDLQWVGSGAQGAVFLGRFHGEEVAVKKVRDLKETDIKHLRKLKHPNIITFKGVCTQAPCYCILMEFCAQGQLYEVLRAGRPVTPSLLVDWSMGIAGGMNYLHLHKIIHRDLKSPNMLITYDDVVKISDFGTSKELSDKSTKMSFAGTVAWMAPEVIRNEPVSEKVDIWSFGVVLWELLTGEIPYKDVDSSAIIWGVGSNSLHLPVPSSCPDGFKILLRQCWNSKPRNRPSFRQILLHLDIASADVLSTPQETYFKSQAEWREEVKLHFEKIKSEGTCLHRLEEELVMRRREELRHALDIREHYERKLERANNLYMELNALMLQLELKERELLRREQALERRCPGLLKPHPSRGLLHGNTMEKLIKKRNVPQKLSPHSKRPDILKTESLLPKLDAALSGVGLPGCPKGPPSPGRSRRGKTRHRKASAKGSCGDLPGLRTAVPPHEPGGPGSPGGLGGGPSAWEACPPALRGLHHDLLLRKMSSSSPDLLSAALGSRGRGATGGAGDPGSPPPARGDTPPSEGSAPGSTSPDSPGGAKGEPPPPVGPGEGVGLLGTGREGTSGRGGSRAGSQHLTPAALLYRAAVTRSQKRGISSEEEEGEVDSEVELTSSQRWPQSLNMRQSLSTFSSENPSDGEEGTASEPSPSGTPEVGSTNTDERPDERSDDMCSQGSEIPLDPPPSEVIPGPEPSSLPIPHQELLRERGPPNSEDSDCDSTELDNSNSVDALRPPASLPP
# [2] = biological target: Ephrin type-A receptor 5 (Homo sapiens) (UniProt P54756); assay: Selectivity interaction (KinomeScan (DiscoverX)) EUB0001079a EPHA5; settings: at 1 µM
# [3] = biological target: Receptor tyrosine-protein kinase erbB-2 (Homo sapiens, UniProt P04626); assay: Selectivity interaction (Kinase panel (33PanQinase(R) Activity Assay)) EUB0000877a ERBB2
# [4] = biological target: Serine/threonine-protein kinase PAK 2 (Homo sapiens) (UniProt Q13177); assay: Selectivity interaction (Kinase screening (Nanosyn)) EUB0000604a PAK2
# [5] = biological target: T2, Serine/threonine-protein kinase TBK1 (Homo sapiens) (UniProt Q9UHD2); assay: Selectivity interaction (Ambit KINOMEscan and KiNATiv profiling in Jurkat cells) EUB0000090b TBK1; type: cell-based; settings: at 1 µM
# T2 sequence (whole entry): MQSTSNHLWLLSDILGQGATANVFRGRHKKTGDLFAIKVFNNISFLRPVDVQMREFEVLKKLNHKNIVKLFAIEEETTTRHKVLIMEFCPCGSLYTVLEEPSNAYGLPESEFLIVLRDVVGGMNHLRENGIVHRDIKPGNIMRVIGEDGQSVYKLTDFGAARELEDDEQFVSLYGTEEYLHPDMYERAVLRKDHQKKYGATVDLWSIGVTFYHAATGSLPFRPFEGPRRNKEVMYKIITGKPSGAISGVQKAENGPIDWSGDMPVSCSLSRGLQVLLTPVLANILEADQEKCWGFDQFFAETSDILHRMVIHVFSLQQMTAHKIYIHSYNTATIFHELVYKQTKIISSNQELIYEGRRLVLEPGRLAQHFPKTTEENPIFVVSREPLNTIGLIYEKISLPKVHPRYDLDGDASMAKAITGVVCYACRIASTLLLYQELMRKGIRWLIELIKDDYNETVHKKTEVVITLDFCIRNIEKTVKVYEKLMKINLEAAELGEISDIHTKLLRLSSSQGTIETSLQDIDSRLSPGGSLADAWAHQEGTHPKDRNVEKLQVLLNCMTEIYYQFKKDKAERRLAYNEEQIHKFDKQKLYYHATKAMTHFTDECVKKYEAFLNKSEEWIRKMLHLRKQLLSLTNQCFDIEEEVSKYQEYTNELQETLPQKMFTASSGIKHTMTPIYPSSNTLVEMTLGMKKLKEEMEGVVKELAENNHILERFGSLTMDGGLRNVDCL
# [6] = biological target: Tyrosine-protein kinase Lck (Homo sapiens, UniProt P06239); assay: Selectivity interaction (KinomeScan (DiscoverX)) EUB0000045b LCK
# [7] = biological target: Cyclin-dependent kinase 5/CDK5 activator 1 (Homo sapiens, UniProt Q00535)
# [8] = biological target: Serine/threonine-protein kinase 24 (Homo sapiens) (UniProt Q9Y6E0); assay: Selectivity interaction (KinomeScan (DiscoverX)) EUB0000695a STK24; settings: at 100 nM
# Sequence of Serine/threonine-protein kinase 24 (Homo sapiens) (Q9Y6E0 whole entry, looked up): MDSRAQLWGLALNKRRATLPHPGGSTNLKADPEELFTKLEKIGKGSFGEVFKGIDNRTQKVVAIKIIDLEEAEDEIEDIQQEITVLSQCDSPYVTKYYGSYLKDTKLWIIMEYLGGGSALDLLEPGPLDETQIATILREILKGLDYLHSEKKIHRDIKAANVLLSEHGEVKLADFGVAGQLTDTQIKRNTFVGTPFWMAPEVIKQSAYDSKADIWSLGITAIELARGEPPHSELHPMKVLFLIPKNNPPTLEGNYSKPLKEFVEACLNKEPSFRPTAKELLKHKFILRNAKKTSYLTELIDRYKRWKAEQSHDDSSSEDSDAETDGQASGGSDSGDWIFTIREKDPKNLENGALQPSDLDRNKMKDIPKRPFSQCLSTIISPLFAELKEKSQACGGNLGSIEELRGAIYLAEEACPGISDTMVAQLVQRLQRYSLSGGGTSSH
# Sequence of Tyrosine-protein kinase Lck (P06239 2-509 limits assumed): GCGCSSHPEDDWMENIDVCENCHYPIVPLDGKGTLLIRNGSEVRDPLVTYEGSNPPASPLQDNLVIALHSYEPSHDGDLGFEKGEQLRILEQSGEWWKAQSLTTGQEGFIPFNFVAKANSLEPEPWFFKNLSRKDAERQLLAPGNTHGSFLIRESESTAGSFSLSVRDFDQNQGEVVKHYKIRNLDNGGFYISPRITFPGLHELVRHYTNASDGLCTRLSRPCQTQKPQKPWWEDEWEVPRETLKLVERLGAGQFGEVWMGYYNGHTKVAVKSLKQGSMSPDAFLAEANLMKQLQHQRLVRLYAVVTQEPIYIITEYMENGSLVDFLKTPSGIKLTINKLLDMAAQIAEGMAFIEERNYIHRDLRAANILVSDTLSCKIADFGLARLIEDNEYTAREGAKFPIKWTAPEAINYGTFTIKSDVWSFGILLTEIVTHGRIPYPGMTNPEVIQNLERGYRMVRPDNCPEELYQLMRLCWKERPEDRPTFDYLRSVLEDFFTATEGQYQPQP
# Sequence of Ephrin type-A receptor 5 (Homo sapiens) (P54756 whole entry): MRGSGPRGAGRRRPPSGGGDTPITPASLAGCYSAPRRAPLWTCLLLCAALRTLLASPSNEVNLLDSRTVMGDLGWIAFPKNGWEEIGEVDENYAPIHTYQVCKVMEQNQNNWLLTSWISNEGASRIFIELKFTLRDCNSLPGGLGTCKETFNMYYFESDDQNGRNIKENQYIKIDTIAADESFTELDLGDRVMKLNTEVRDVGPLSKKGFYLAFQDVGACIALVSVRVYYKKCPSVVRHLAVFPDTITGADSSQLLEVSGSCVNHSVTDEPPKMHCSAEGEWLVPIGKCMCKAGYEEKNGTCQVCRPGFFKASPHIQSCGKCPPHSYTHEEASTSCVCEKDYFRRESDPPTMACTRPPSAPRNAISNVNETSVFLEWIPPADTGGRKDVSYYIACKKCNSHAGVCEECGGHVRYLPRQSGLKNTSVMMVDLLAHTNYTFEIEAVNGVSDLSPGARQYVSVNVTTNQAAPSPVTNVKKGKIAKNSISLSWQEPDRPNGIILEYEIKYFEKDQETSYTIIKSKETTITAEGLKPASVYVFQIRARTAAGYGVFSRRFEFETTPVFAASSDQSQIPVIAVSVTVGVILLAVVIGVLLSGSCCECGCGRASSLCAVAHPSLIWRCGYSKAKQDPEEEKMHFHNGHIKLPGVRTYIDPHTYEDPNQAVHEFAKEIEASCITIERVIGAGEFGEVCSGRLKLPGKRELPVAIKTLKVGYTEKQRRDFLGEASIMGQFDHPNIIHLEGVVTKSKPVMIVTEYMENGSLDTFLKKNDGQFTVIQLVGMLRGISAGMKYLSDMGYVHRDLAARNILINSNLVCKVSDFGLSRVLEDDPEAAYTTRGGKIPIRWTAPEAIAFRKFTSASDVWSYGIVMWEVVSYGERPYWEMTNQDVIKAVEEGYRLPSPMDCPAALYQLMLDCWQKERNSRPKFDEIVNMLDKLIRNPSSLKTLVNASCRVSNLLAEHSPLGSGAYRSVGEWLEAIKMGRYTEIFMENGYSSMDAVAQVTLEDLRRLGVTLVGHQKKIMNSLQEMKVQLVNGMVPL
# Sequence of Serine/threonine-protein kinase PAK 2 (Homo sapiens) (Q13177 whole entry): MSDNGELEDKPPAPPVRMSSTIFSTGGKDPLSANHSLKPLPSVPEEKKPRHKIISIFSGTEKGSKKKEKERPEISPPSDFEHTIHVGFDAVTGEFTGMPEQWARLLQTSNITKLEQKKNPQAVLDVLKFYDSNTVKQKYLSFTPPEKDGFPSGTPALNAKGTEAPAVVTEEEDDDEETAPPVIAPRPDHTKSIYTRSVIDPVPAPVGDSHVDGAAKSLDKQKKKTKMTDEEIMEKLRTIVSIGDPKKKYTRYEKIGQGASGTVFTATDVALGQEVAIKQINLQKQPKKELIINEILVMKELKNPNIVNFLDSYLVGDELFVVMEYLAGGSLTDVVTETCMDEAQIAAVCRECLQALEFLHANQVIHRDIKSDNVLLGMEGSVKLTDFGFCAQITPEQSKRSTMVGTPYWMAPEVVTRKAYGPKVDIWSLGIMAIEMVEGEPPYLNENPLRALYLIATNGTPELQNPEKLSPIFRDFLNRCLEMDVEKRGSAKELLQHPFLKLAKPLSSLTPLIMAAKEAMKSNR
# Sequence of Cyclin-dependent kinase 5/CDK5 activator 1 (Q00535 whole entry): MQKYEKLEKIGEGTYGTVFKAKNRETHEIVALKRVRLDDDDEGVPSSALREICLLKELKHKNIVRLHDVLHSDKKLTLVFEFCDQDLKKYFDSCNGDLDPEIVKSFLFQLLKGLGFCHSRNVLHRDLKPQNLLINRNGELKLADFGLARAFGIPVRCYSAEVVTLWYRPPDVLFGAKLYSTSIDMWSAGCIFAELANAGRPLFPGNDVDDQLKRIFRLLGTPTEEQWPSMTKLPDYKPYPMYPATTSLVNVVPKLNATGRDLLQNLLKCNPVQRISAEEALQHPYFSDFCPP
# Sequence of Cyclin-dependent kinase 5/CDK5 activator 1 (Q15078 whole entry, further chain): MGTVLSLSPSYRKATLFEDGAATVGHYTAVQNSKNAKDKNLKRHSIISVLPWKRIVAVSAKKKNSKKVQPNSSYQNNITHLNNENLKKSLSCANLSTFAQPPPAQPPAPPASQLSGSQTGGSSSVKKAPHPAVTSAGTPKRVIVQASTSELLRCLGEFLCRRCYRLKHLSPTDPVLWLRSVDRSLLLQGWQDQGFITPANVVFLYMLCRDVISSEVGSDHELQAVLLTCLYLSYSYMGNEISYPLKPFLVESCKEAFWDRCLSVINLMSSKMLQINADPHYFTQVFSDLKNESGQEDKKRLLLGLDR
# Sequence of Receptor tyrosine-protein kinase erbB-2 (P04626 whole entry): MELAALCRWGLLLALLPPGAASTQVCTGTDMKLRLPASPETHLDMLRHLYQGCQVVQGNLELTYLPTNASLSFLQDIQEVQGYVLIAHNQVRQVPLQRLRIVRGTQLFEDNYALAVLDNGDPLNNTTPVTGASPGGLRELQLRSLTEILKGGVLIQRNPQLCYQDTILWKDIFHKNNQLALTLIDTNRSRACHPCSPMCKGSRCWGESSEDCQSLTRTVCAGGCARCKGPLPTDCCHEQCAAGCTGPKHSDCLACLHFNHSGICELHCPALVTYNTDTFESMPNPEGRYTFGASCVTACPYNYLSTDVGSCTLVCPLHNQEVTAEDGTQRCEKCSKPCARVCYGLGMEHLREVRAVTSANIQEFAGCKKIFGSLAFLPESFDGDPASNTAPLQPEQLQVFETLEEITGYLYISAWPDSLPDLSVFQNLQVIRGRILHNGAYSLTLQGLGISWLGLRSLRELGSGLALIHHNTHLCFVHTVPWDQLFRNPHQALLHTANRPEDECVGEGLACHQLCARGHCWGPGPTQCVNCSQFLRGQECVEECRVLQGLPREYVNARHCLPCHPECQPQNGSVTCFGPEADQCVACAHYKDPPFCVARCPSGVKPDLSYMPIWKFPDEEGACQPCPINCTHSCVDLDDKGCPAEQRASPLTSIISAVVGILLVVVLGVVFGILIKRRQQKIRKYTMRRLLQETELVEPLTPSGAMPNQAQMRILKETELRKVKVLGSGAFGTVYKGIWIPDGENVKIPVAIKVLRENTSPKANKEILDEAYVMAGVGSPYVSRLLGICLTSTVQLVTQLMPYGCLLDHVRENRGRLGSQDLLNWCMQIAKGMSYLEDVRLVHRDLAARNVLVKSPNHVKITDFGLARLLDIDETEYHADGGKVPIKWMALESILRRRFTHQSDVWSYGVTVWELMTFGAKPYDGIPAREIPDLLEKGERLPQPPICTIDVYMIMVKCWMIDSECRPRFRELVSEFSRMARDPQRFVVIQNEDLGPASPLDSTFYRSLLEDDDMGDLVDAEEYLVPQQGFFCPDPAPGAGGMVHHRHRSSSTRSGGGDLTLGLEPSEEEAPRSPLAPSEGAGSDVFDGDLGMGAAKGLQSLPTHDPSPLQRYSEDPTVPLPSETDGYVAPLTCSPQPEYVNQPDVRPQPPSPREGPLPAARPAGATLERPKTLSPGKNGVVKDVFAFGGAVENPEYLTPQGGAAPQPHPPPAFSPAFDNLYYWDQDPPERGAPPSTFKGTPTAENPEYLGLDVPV
smiles,measurement,setting,value
COc1cc(Nc2nc(C)cc(-c3cnn4nc(OC)ccc34)n2)cc(C(F)(F)F)c1,% of control,[1],92%
Nc1cnc(N2CCc3cc(S(=O)(=O)Nc4c(F)cc(Cl)cc4F)cc(N4CCCC4=O)c32)nc1 [TP-020n],% of control,[2],100%
CCC(=O)N1CC[C@H](Nc2ncnc3c2CN(c2cnc(OC)c(C(F)(F)F)c2)CC3)C1 [LENIOLISIB],IC50,[3],> 10 µM
Cc1cnc(Nc2ccc(F)cc2Cl)nc1-c1c[nH]c(C(=O)N[C@H](CO)c2cccc(Cl)c2)c1,% of inhibition,[4],0%
CN(C)C/C=C/C(=O)Nc1ccc(C(=O)N2CCCC(Nc3ncc(Cl)c(-c4c[nH]c5ccccc45)n3)C2)cc1 (centres undefined),% of control,[5],96%
C=CC(=O)Nc1cc(-n2c(=O)ccc3cnc4ccc(-c5ccc(NS(C)(=O)=O)cc5)cc4c32)ccc1C,% of control,[6]; at 1 µM,89%
same,% of control,[6]; at 10 µM,80%
CCc1cccc(CC)c1NC(=O)c1nn(C)c2c1CCc1cnc(Nc3ccc(C(=O)NC4CCN(C)CC4)cc3OC(F)(F)F)nc1-2,IC50,[7],> 10 µM
Cc1cc(F)c(C(=O)Nc2cccc(-c3nncn3C(C)C)n2)cc1-n1cnc(C2CC2)c1,% of control,[8],100%
